Assay results reported in US8338565B2, “Macrocyclic compounds for inhibition of tumor necrosis factor alpha” (Ensemble Therapeutics Corporation, priority 2008, dated 2012).
Read-outs that look alike come from different tables or passages of the source. Numbered stars: 1 amine (or outer) side, 2 acyl side, 3 side chain; on linkers, the order of the positions; unused ones are H or OH. Bridge positions count the residues as written; N and C are the ends. Square brackets hold non-standard residues; d marks the D form. Peptide text beside a SMILES is read from it. Tartaroyl(2R,3R-(OAc)2) = CC(=O)O[C@@H](C(=O)[*:1])[C@@H](OC(C)=O)C(=O)[*:2]; Bip = N[C@@H](Cc1ccc(-c2ccccc2)cc1)C(=O)O; dPhe(4-NH2) = Nc1ccc(C[C@@H](N)C(=O)O)cc1; Phe(4-Br) = N[C@@H](Cc1ccc(Br)cc1)C(=O)O; Phe(4-NH2) = Nc1ccc(C[C@H](N)C(=O)O)cc1; d(hPhe) = N[C@H](CCc1ccccc1)C(=O)O; d2Thi = N[C@H](Cc1cccs1)C(=O)O; Suc = O=C(CCC(=O)[*:2])[*:1]

Experiments:
[1] = molecular target: T1, TNFα / TNFα receptor (TNFα R1/Fc) (Homo sapiens, UniProt P01375); assay: Inhibition of binding of TNFα to the TNFα receptor (plate ELISA competition); conditions: Table 2; read-out: Activity (IC50, inhibition of TNFα binding to TNFα R1/Fc)
T1 construct: purchased R&D Systems
Method in brief: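 Compound dilutions were preincubated 30 min at RT with 8.33 nM TNFα R1/Fc in PBST with 2% DMSO, then added to wells coated with 15 nM TNFα for 30 min. Bound receptor was detected with HRP anti-human Fc and TMB, read as A450.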

[2] = test system: TNF-α (degradation of IkB in HeLa cells or A431 cells); assay: Human cell-based assay: inhibition of TNF-α induced degradation of IkB; conditions: for inhibition at 5 µM: read-out: Inhibition at Various Compound Concentrations, 5 μM; for inhibition at 10 µM: read-out: Inhibition at Various Compound Concentrations, 10 μM
Method: We used a human cell-based assay to determine the TNF-α antagonistic activity of the compounds of this invention based upon the ability of the compounds to inhibit the degradation of IkB in those cells. The assay was performed on either HeLa cells or A431 cells.
On Day 1, wells of a 24-well tissue culture plate were seeded with cells that had been harvested from cultures in T-75 flasks by standard trypsin/EDTA treatment. The harvested cells were suspended in EMEM/10% FBS/P/S (100,000 HeLa cells/mL or 200,000 A431 cells/mL) and 1 mL aliquots were placed into each well. The cells were incubated overnight at 37° C. in a humidified CO2 incubator. On day 2, the cells were approximately 95% confluent.
Test and control compounds were diluted to a 1 mM solution by dilution in DMSO. The assay was run in Costar tubes. Into each tube was placed 2.5 or 5.0 μL of test compound (for testing 5 μM and 10 μM concentrations, respectively), 2.5 μL of 100× TNF-α solution (200 ng/mL TNF-α in EMEM containing 1μg/mL cycloheximide) and, for those tubes containing 2.5 μL of compound, an additional 2.5 μL of DMSO. To each tube was then added 0.5 mL of EMEM containing 1μg/mL cycloheximide. Negative control tubes contained either a) no compound, or b) no TNF-α. Tubes were then incubated for 30 minutes at room temperature.
Once incubation had begun, the media was aspirated from the cells in the 24-well plates. Sufficient EMEM/10% FBS/P/S containing 1 ug/mL cycloheximide was then added to cover the cells (approximately 3 mL) and the cells were retuned to the 37° C. humidified CO2 incubator until compound incubation was completed. The media was then aspirated from the cells, 0.2 mL of the compound solution was added and the cells re-incubated at 37° C. for 30 minutes. The plates were then placed on ice, the compound solution was aspirated from each well, and the cells washed once with 1 mL of cold PBS. Cells were then fixed with 500 μL of 3.7% formaldehyde in PBS (“fix solution”) for 20 minutes at room temperature. The fix solution was decanted and the cells permeabilized by 4× washing with 500 uL PBS/0.1% Triton X-100. After the final permeabilization wash, the cells were treated with 500 uL of Odyssey blocking buffer (OBB) and incubated at room temperature with shaking for 90 minutes.
The OBB was decanted and then to each well was then added 125 μL each of mouse anti-IkB CST#4814 (diluted 1:200 in OBB) and rabbit anti-beta-tubulin CST#2146 (diluted 1:200 in OBB). Plates were sealed with parafin and incubated overnight at room temperature with shaking.
On day 3, the antibody solution was removed from the cells and the cells were washed 5× with 0.5 mL PBST for five minutes each on a shaker. To each well was then aded 125 μL of a secondary antibody solution containing goat anti-mouse IgG-IRDye 800 and goat anti-rabbit IgG-IRDye (each diluted 1:500 in OBB+0.2% Tween 20). The plates were covered with aluminum foil and incubated for 1 hour at room temperature with shaking. The secondary antibody solution was removed and the cells washed 3× with 0.5 mL PBST for five minutes each on a shaker. Cells were then scanned by LICOR with the following settings: 700 intensity=6.0, 800 intensity=6.5; microplate2 settings with 3.0 mm offset; 169 resolution. LICOR values were fitted to an equation for a sigmoidal curve and IC50 values calculated from the fitted parameters. […] Blank cells indicate that the compound was not tested at that concentration. Certain compounds that were tested more than once and the values reflect the average of the multiple tests.

[3] = 5 μM compound, HeLa or A431 cells
[4] = 10 μM compound, HeLa or A431 cells

T1 sequence (P01375 77-233 limits assumed, species assumed): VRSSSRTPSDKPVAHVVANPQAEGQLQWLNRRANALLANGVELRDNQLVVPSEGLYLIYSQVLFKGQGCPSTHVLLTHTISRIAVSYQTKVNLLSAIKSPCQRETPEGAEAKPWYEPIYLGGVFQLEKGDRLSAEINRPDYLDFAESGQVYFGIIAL

| Structure (SMILES) | IC50 [1] [µM] | inhibition at 5 µM [2, 3] [%] | inhibition at 10 µM [2, 4] [%] | inhibition at 5 µM [2] [%] | inhibition at 10 µM [2] [%] | inhibition at 25 µM ([2]; 25 μM compound, HeLa or A431 cells, read-out: Inhibition at Various Compound Concentrations, 25 μM) [%] |
| --- | --- | --- | --- | --- | --- | --- |
| COC(=O)[C@H](CC(=O)O)NC(=O)[C@@H]1Cc2ccc(cc2)OCC(=O)N[C@@H](Cc2cccs2)C(=O)N[C@H](Cc2ccc(-c3ccccc3)cc2)C(=O)N[C@@H](Cc2ccccc2)C(=O)N1 [Compound 388] | < 10 | < 10 | 10 to 50 | – | – | – |
| COc1ccc(-c2ccc(C[C@@H]3NC(=O)[C@H](Cc4cccs4)NC(=O)COc4ccc(cc4)C[C@@H](C(=O)O)NC(=O)[C@H](Cc4ccccc4)NC3=O)cc2)cc1 [Compound 364] | < 10 | – | – | 50 to 80 | 10 to 50 | – |
| O=C1N[C@H](CCc2ccccc2)C(=O)N[C@@H](C(=O)O)Cc2ccc(cc2)NC(=O)[C@H](O)[C@@H](O)C(=O)N[C@H](Cc2cccs2)C(=O)N[C@H]1Cc1ccc(-c2ccccc2)cc1 [Compound 236] | < 10 | 10 to 50 | 10 to 50 | – | – | – |
| O=C1CCC(=O)N[C@H](Cc2cccs2)C(=O)N[C@@H](Cc2ccc(Br)cc2)C(=O)N[C@H](Cc2ccccc2)C(=O)N[C@H](C(=O)O)Cc2ccc(cc2)N1 [Compound 85] ([d2Thi][Phe(4-Br)][dF][Phe(4-NH2)]-OH; linker N-4 via Suc) | 10 to 30 | – | – | – | – | < 10 |
| O=C(O)[C@@H]1Cc2ccc(cc2)NC(=O)[C@H](O)[C@@H](O)C(=O)N[C@H](Cc2cccs2)C(=O)N[C@@H](Cc2ccc(-c3ccccc3)cc2)C(=O)N[C@H](CCc2ccccc2)C(=O)N1 [Compound 289] | < 10 | < 10 | < 10 | – | – | – |
| COC(=O)c1ccc(-c2ccc(C[C@@H]3NC(=O)[C@@H](Cc4cccs4)NC(=O)[C@H](O)[C@@H](O)C(=O)Nc4ccc(cc4)C[C@@H](C(=O)O)NC(=O)[C@@H](Cc4ccccc4)NC3=O)cc2)cc1 [Compound 332] | < 10 | < 10 | – | – | – | – |
| O=C1COc2ccc(cc2)C[C@@H](C(=O)O)NC(=O)[C@H](Cc2ccccc2)NC(=O)[C@H](Cc2ccc(-c3ccc(C(=O)OCc4ccccc4)cc3)cc2)NC(=O)[C@H](Cc2cccs2)N1 [Compound 396] | < 10 | – | – | 10 to 50 | 50 to 80 | – |
| C[C@@H](NC(=O)[C@@H]1Cc2ccc(cc2)OCC(=O)N[C@@H](Cc2cccs2)C(=O)N[C@H](Cc2ccc(-c3ccccc3)cc2)C(=O)N[C@@H](Cc2ccccc2)C(=O)N1)C(=O)O [Compound 384] | < 10 | < 10 | < 10 | – | – | – |
| O=C1COc2ccc(cc2)C[C@@H](C(=O)O)NC(=O)[C@H](Cc2ccccc2)NC(=O)[C@H](Cc2ccc(-c3ccc(F)cc3)cc2)NC(=O)[C@H](Cc2cccs2)N1 [Compound 363] | < 10 | – | – | 50 to 80 | 10 to 50 | – |
| CC(=O)O[C@H]1C(=O)Nc2ccc(cc2)C[C@H](C(=O)O)NC(=O)[C@@H](CCc2ccccc2)NC(=O)[C@H](Cc2ccc(-c3ccccc3)cc2)NC(=O)[C@@H](Cc2cccs2)NC(=O)[C@@H]1OC(C)=O [Compound 217] ([d2Thi][Bip][d(hPhe)][dPhe(4-NH2)]-OH; linker N-4 via Tartaroyl(2R,3R-(OAc)2)) | < 10 | < 10 | < 10 | – | – | – |
| O=C1CCC(=O)N[C@H](CCc2ccccc2)C(=O)N[C@@H](Cc2ccc(Br)cc2)C(=O)N[C@H](Cc2ccccc2)C(=O)N[C@@H](C(=O)O)Cc2ccc(cc2)N1 [Compound 111] ([d(hPhe)][Phe(4-Br)][dF][dPhe(4-NH2)]-OH; linker N-4 via Suc) | 10 to 30 | – | < 10 | – | – | – |
| CC[C@H](C)[C@H](NC(=O)[C@@H]1Cc2ccc(cc2)OCC(=O)N[C@H](Cc2cccs2)C(=O)N[C@@H](Cc2ccc(-c3ccccc3)cc2)C(=O)N[C@H](CCc2ccccc2)C(=O)N1)C(=O)O [Compound 307] | < 10 | – | < 10 | – | – | – |
